# From US8563054B2, “Anti-inflammatory agent” (Maruzen Pharmaceuticals Co., Ltd., priority 2005, dated 2013)
# Experiments:
# [1] = tested on: rabbit washed platelet suspension; experiment: Platelet aggregation inhibitory effect (collagen-induced, washed platelets); type: cell-based; settings: collagen as aggregation inducing agent, by interpolation
# Experimental: For the extracts and purified materials prepared in Production Examples 1 to 5 (hereinafter, may be referred to as “sample”), inhibitory effect on platelet aggregation was tested as follows.
# First, rabbit blood, which was collected with the addition of 1/10 amount of 77 mmol/L EDTA (pH 7.4), was centrifuged (180×g, 10 minutes, room temperature) to obtain platelet suspension. Next, the platelet suspension was centrifuged (810×g, 10 minutes, 4° C.), and the supernatant was removed to obtain platelet. This was suspended in platelet washing solution (0.15 mol/L sodium chloride: 0.15 mol/L Tris-HCL buffer (pH 7.4): 77 mmol/L EDTA (pH7.4)=90:8:2), centrifuged in the same way as mentioned above. […]
# Next, to 222 μL of the prepared washed platelet suspension, 1 μL of 200 mmol/L calcium chloride solution was added and allowed to react at 37° C. for 1 minute. […] Separately, rate of platelet aggregation, B, was determined in a similar operation to that mentioned above except that the solvent of sample solution was added instead of the sample solution. % Inhibition of platelet aggregation=[(B−A)/B]×100 <Formula 3> […]
# Next, the sample concentration was reduced in a stepwise manner, and the above-mentioned percentage inhibition of platelet aggregation was measured. The sample concentration, at which 50% of platelet aggregation is inhibited, was determined by interpolation. […]
# [2] = target: T1, hyaluronidase (Type IV-S, from bovine testis) (Bos taurus, UniProt Q2YDK3); experiment: Hyaluronidase activity inhibition assay; type: biochemical; settings: pH 3.5, 37° C., by interpolation
# T1 construct: hyaluronidase solution (Type IV-S (from bovine testis))
# T1 sequence (Q2YDK3 1-553): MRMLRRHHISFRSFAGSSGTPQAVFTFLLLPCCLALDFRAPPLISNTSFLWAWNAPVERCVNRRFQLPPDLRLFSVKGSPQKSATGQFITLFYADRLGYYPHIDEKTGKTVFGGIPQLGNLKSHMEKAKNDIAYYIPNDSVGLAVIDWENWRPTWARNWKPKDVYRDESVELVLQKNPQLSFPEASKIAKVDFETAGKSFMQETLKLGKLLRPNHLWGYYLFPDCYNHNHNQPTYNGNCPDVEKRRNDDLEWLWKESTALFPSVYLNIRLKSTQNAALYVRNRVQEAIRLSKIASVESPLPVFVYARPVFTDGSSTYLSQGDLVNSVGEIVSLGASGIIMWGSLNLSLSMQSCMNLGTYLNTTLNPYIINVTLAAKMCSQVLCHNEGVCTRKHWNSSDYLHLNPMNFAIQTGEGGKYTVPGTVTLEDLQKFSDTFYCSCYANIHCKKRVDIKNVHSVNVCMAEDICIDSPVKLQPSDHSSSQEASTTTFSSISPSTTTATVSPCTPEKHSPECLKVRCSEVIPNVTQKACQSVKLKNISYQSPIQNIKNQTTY
# Experimental: For the extracts and purified materials prepared in Production Examples 1 to 5 (hereinafter, may be referred to as “sample”), inhibitory effect on hyaluronidase activity was tested as follows.
# First, 0.1 mL of hyaluronidase solution (Type IV-S (from bovine testis; SIGMA 400 NF units/mL) was added to 0.1 mol/L acetic acid buffer (pH 3.5) in which each sample was dissolved, and allowed to react at 37° C. for 20 minutes.
# Next, 0.2 mL of 2.5 mmol/L calcium chloride was added as an activating agent and allowed to react at 37° C. for 20 minutes. To this solution, 0.5 mL of 0.4 mg/mL potassium hyaluronate solution (from rooster comb) was added and allowed to react at 37° C. for 40 minutes. […] After that, absorbance at the wavelength of 585 nm was determined.
# Next, similar operations and absorbance determination were performed without addition of enzyme. Further, as a control, using distillated water instead of sample solution, similar operations and absorbance determination were performed.
# From the results of the measurements mentioned above, the percentage inhibition of hyaluronidase activity was calculated according to the following formula 1: % Inhibition of hyaluronidase activity=[1−(St−Sb)/(Ct−Cb)]×100 <Formula 1> […]
# Next, the sample concentration was reduced in a stepwise manner, and the above-mentioned percentage inhibition of hyaluronidase activity was measured. […]
# [3] = tested on: rat basophilic leukemia cells (RBL-2H3); experiment: Assay of inhibitory effect on hexosaminidase release (indicator of histamine release); type: cell-based; settings: RBL-2H3, DNP-specific IgE / DNP-BSA stimulation; by interpolation
# Experimental: For the extracts and purified materials prepared in Production Examples 1 to 5 (hereinafter, may be referred to as “sample”), inhibitory effect on hexosaminidase release was tested as follows. Since hexosaminidase is also released simultaneously upon release of to histamine inside a cell, the inhibitory effect on histamine release can be evaluated using hexosaminidase release as an indicator of histamine release.
# First, rat basophilic leukemia cells (RBL-2H3) were cultured using a medium (S-MEM medium with 15% FBS; hereinafter the same) placed in 25 mL culture flasks, and then cells were collected by trypsin treatment. […]
# Then, release was stopped by leaving the 96 well plate at rest on ice. […] After completion of the reaction, 250 μL of 0.1 mol/L Na2CO3/NaHCO3 was added to each well, and the absorbance at the wavelength of 415 nm was determined.
# Next, as a blank test, the absorbance of a mixture of 10 μl it of cell supernatant and 250 μL of 0.1 mol/L Na2CO3/NaHCO3 at the wavelength of 415 nm was determined and was used for correction.
# From the results of the measurements mentioned above, the percentage inhibition of hexosaminidase release was determined according to the following formula 2: % Inhibition of hexosaminidase release=[1−(B−C)/A]×100 <Formula 2> […]
"IC50 ([1]; Oryctolagus cuniculus, Platelet, read-out: Sample concentration for 50% inhibition of platelet aggregation) [µg/mL]",IC50 ([2]; read-out: Sample concentration for 50% inhibition of hyaluronidase activity (converted)) [µM],Sample concentration for 50% inhibition of hyaluronidase activity [2] [µg/mL],Compound,Sample concentration for 50% inhibition of platelet aggregation [1] [µg/mL],Sample concentration for 50% inhibition of hexosaminidase release [3] [µg/mL]
400,56.4,–,"CC1(C)C=Cc2c(ccc3c2OC[C@@H](c2ccc(O)cc2O)C3)O1 [Glabridin of Production Example 4, glabridin]",–,–
–,–,17.2,"C=CC(C)(C)c1cc(/C=C/C(=O)c2ccc(O)cc2)c(OC)cc1O [Licochalcone A of Production Example 5, licochalcone A]",79.7,23.5
